Test results taken from PMC7093416, “Selective USP7 inhibition elicits cancer cell killing through a p53-dependent mechanism” (Scientific Reports, 2020).
Read-outs that look alike come from different tables or passages of the source.

How the values were obtained:
[1] = target: T1, full-length USP7 (Homo sapiens, UniProt Q93009); test: Ub-AMC enzymatic assay, full-length USP7, 6 h pre-incubation; type: biochemical
T1 construct: The constructs encoding USP7 full length (amino acids 1–1102) and catalytic domain (208–560); inferred from Ni-NTA purification; made in house; host or cells: E. coli BL21 (DE3)
Description: Full length USP7 was tested for its activity in Ubiquitin-AMC assay in presence or absence of inhibitors. USP7 (5 nM) was pre-incubated for 6 hours at room temperature with different concentrations of inhibitors or DMSO as a control in 50 mM HEPES pH 7.5, 0.5 mM EDTA, 11 uM ovalbumin, and 5 mM DTT. Ubiquitin-AMC (Boston Biochem) was then added to a final concentration of 500 nM. The initial rate of the reaction was measured by collecting fluorescence data at one minute intervals over 30-minute period using a Clariostar fluorescence plate reader at excitation and emission wavelength of 345 and 445 nm respectively. The calculated initial rate values were plotted against inhibitor concentrations to determine IC50s. All the experimental data were plotted using Prism GraphPad. All assays for each compound were performed at least twice for each compound.

[2] = system: MCF7 cells; test: 3' DGE RNA-seq transcriptional profiling; type: cell-based; design: log2FoldChange: concentration or dose not given beside the values; settings: for log2FoldChange: gene ABCA12
Description: The DGE RNA sequencing was performed following the published method[39],[40] with modifications as described below. MCF7 cells were seeded in a 384 well plate at 2500 cells per well, allowed to adhere for 24 hours, then treated with two doses in triplicate of XL177A, XL177B, Nutlin-3, or DMSO. After 24 hours of treatment, an EL405x plate washer (BioTek) was used to aspirate the media and wash once with PBS. Cells were lysed in the plate with 10 µl of lysis buffer (1x Qiagen TCL, 1% BME) for 5 minutes at room temperature, then stored at −80 °C. Automated liquid handling was performed with assistance from ICCB-Longwood Screening Facility. A BRAVO Automated Liquid Handling Platform (Agilent) was used for RNA extraction as follows. The lysate was mixed and 10 µl was transferred to a 384 well PCR plate. 28 µl of homemade SPRI[66] (solid-phase reversible immobilization) beads were added to the lysate and mixed. After 5 minutes, the beads were pulled down by placing the plate on a magnet, then the beads were washed twice with 80% ethanol. Beads were air dried for 1 minute, then 20 µl of nuclease free water was added, the plate was removed from the magnet, and the beads were resuspended. After 5 minutes, the plate was placed back on the magnet to pull down the beads. The supernatant was transferred to a fresh 384 well plate. RNA quantity was checked with the Qubit Fluorometer and RNA quality was assessed using the Agilent BioAnalyzer RNA 6000 Pico Kit. The BRAVO platform was again used to transfer 5 µl of supernatant was transferred to a fresh 384 well plate with RT master mix and 1 µl of barcoded E3V6NEXT adapters for reverse transcription and template switching. The plate was incubated for 90 minutes at 42 °C, then cDNA was pooled, purified with the QIAquick PCR purification kit. The full-length cDNA was treated with Exonuclease I to remove excess primers for 30 minutes at 37 °C then amplified x5 cycles with Advantage 2 PCR Enzyme System using the SINGV6 primer. The amplified full-length cDNA was purified with Agencourt AMPure XP magnetic beads and quantitated by Qubit Fluorometer. The sequencing library was prepared using the Nextera DNA kit following the manufacturer’s instructions. Briefly, 55 ng of cDNA was tagmented for 5 minutes at 55 °C then purified using Zymo DNA Clean & Concetrator-5 column, then amplified x7 cycles and purified using a 0.9x ratio of AMPure XP magnetic beads. The library size distribution was assessed by Agilent BioAnalyzer HS DNA Kit before it was quantified by qPCR and sequenced on an Illumina NextSeq at the Biopolymers Facility at Harvard Medical School.
The bcbio-nextgen single cell RNA-seq analysis pipeline (https://bcbio-nextgen.readthedocs.io/en/latest/) was used to deconvolve the well barcodes and convert reads to counts. Any detected barcode that differed by more than one base from an expected barcode was removed. Unique reads were identified using unique molecular identifiers (UMIs) in order to remove PCR duplicates. The reads remaining after these filters were aligned to the transcriptome (GRCh38) using RapMap[67]. The R package DESeq. 2 version 1.20.0 (R version 3.5.1) was used for differential expression analysis.

[3] = system: Ewing Sarcoma, AML, multiple myeloma and rhabdoid cell lines; test: Cell viability (CellTiter-Glo) in individual cell line panels; type: cell-based
Description: Cells were plated in 384-well culture-treated plates and allowed to settle overnight. After drug treament and appropriate incubation time, cell viability was assessed using the CellTiter-Glo Luminescent Cell Viability Assay (Promega). Luminescence was read on a Fluostar Omega Reader (BMG Labtech).

[4] = system: HDM2-p53 signaling axis; test: Whole cell lysate Western blots of MCF7 cells (HDM2, p53, p21); type: cell-based

T1 sequence (Q93009 whole entry, the tested form may be a part): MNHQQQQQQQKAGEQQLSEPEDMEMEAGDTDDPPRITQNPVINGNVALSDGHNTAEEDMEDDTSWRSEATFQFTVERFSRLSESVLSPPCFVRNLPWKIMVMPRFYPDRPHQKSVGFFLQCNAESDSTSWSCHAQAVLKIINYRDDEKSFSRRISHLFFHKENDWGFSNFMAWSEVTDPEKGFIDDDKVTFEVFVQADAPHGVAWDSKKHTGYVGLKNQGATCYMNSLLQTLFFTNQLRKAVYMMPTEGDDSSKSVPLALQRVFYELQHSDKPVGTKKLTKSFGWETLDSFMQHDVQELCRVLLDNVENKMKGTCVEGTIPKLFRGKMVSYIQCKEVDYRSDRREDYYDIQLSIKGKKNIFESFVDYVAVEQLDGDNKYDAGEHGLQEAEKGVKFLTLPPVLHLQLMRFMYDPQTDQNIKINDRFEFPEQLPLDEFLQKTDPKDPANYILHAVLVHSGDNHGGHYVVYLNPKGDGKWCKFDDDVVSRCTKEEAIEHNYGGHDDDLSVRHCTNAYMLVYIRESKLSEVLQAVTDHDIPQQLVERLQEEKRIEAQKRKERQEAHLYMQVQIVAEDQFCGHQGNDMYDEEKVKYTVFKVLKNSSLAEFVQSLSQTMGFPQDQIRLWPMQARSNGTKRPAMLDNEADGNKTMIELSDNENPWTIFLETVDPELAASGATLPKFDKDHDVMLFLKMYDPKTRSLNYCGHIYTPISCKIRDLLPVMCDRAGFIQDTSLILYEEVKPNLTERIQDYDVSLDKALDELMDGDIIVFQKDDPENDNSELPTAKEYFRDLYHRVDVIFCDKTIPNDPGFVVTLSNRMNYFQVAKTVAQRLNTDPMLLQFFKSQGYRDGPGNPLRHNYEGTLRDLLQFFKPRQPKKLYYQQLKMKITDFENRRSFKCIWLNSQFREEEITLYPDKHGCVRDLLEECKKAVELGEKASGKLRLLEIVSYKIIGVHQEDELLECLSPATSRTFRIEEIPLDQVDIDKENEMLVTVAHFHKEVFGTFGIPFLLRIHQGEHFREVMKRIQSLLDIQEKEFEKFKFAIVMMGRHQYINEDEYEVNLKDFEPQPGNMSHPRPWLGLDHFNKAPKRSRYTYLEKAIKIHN

Row | Structure (SMILES) | IC50 ([1]; Ub-AMC, 6-hour pre-treatment, read-out: IC50) [nM] | hierarchical clustering of transcriptional profile ([2]; 24 hours, 0.1 or 1 μM) | log2FoldChange ([2]; concentration 0.1) | log2FoldChange ([2]; concentration 1) | less potent than XL177A in the cell lines tested [3] | effects on HDM2-p53 signaling and cell cycle ([4]; negative control) | IC50 ([1]; read-out: potency as irreversible inhibitor of USP7) [nM] | DREAM complex target genes ([2]; 24 hours, low and high dose) | direct p53 target genes ([2]; 24 hours, low and high dose) | TP53-WT cell lines sensitive [3] | TP53-mutant cell lines sensitive [3] | p53 and p21 protein levels [4] | time to degradation of HDM2 [4] [h]
1 | CN1CCN(CCC(=O)Nc2ccc3c(=O)n(CC4(O)CCN(C(=O)[C@H](CCCNC(=O)c5ccc6c(Cl)c7c(nc6c5)CCCC7)Cc5ccccc5)CC4)cnc3c2)CC1 [XL177B] | 340 | clustered with the vehicle (DMSO)-treated control cells | 0.1473 | 0.2612 | ~ 100 fold | did not exert any of the same effects except at 10 μM | – | – | – | – | – | – | –
2 | CN1CCN(CCC(=O)Nc2ccc3c(=O)n(CC4(O)CCN(C(=O)[C@@H](CCCNC(=O)c5ccc6c(Cl)c7c(nc6c5)CCCC7)Cc5ccccc5)CC4)cnc3c2)CC1 [XL177A] | – | – | 0.471 | 0.4983 | – | – | 0.34 | strongly downregulated the DREAM complex targets | strongly upregulated the p53 targets | 9 out of 10 | 1 out of 17 | increases in p53 and downstream p21 protein levels | ≤ 2
3 | COc1ccc(C2=N[C@@H](c3ccc(Cl)cc3)[C@@H](c3ccc(Cl)cc3)N2C(=O)N2CCNC(=O)C2)c(OC(C)C)c1 [Nutlin-3A] | – | – | – | – | – | – | – | – | enriched for the direct p53 target genes | – | – | – | –
